Data on 10 compounds can be found in patent US20240299349A1, “TREATMENT OR PREVENTION OF LEUKAEMIA” (VESTLANDETS INNOVASJONSSELSKAP AS, priority 2019, published 2024).

Each structure is given as a SMILES string.

One data set deals with HL60 cell line. Nature of the data set: WST-1 cell viability assay, 24 hours treatment, HL60. It is filed as cell-based, human. The conditions noted are these: HL60, 24 hours; for cytotoxicity / %-viability: 0.001-100 μM, WST-1; for cell survival dose/response curve in the mitochondria metabolism assay (WST-1): FIG. 1. The method, then:
(§1) The cell lines HL60 and MOLM-13 were treated with the various compounds for 24 hours. The cell viability assay WST-1 was used to determine the cytotoxic effect and to generate the dose-response curves and IC50 values.
(§2) The two human cell lines HL60 and MOLM-13 reflect the aggressive blood cancer acute myeloid leukaemia (AML). These cell lines (obtained from the American Type Culture Collection, ATCC) were cultured in RPMI 1640, 2 mM L-Glutamine, 50 UmL^−1 penicillin/streptomycin (Sigma Aldrich) and 10% fetal bovine serum (Biowest) and incubated in humidified atmosphere at a temperature of 37° C. under 5% CO2. The cells (2×10^5 cells×mL^−1) were treated with various concentrations (0.001 μM→100 μM) of the compounds for a period of 24 hours. Metabolic cell activity (i.e. cell viability) was measured using the WST-1 cell proliferation agent (Roche) and read on a […] plate reader (Infinite 200 Pro, Tecan). Selected cell samples were analysed after nuclear staining with Hoechst to determine apoptotic nuclear fragmentation.
Background: Formazan colour is commonly taken as a measure of viable cells.

In a further data set the test system is MOLM-13 cell line. Nature of the data set: WST-1 cell viability assay, 24 hours treatment, MOLM-13. Format: cell-based, human. The conditions noted are these: MOLM-13, 24 hours; for cytotoxicity / %-viability: 0.001-100 μM, WST-1; for cell survival dose/response curve in the mitochondria metabolism assay (WST-1): FIG. 1. The protocol: as §1, §2

As a reminder, the melting point is the temperature, or range, at which the solid turns liquid. As for `COc1c(C)c(OC)c([N+](=O)[O-])c(-c2ccccc2)c1O` [Compound 7, 3,5-dimethoxy-4-methyl-6-nitrobiphenyl-2-ol], the melting point turned out to be 102.7 °C. In the data set with HL60 cell line, the cytotoxicity / %-viability entry is listed as “minor decrease in %-viability” and the “cell survival dose/response curve in the mitochondria metabolism assay (WST-1)” value (“cell survival dose/response curve” below) is on record as “more limited dose/response curves”. Besides, in the data set on MOLM-13 cell line, the cytotoxicity / %-viability result is on record as “minor decrease in %-viability” and the “cell survival dose/response curve” value is reported as “more limited dose/response curves”.
On to `COc1cccc(-c2c(O)c(OC)c(C)c(OC)c2[N+](=O)[O-])c1` [Compound 7a, 3,3′,5-trimethoxy-4-methyl-6-nitro-[1,1′-biphenyl]-2-ol], for which the “cell survival dose/response curve” value in the data set on HL60 cell line and with MOLM-13 cell line was “rapid decrease in cell survival” each time.
Regarding `COc1c(C)c(OC)c(O)c(-c2ccccc2)c1N` [Compound 8, 6-amino-3,5-dimethoxy-4-methyl-[1,1′-biphenyl]-2-ol], in the data set on HL60 cell line, the cytotoxicity / %-viability result is on record as “substantial drop in %-viability” and the “cell survival dose/response curve” value was “rapid decrease in cell survival”. For the same compound, in the data set with MOLM-13 cell line, the cytotoxicity / %-viability entry is “substantial drop in %-viability” and the “cell survival dose/response curve” value was “rapid decrease in cell survival”.
For `COc1cccc(-c2c(N)c(OC)c(C)c(OC)c2O)c1` [Compound 8a, 6-amino-3,3′,5-trimethoxy-4-methyl-[1,1′-biphenyl]-2-ol], the “cell survival dose/response curve” value in the data set on HL60 cell line and in the data set on MOLM-13 cell line was “rapid decrease in cell survival” each time.
Consider `COc1c(C)c(OC)c(OC(C)=O)c(-c2ccccc2)c1NC(C)=O` [Compound 9, 6-acetamido-3,5-dimethoxy-4-methyl-(1,1′-biphenyl)-2-yl acetate], for which the cytotoxicity / %-viability entry with HL60 cell line and in the data set on MOLM-13 cell line was “weaker cytotoxicity” throughout. The “cell survival dose/response curve” value in the data set on HL60 cell line and in the data set on MOLM-13 cell line was “more limited dose/response curves” throughout.
As for `COc1cccc(-c2c(NC(C)=O)c(OC)c(C)c(OC)c2OC(C)=O)c1` [Compound 9a, 6-acetamido-3,3′,5-trimethoxy-4-methyl-(1,1′-biphenyl)-2-yl acetate], the “cell survival dose/response curve” value with HL60 cell line and in the data set with MOLM-13 cell line was “more limited dose/response curves” throughout.
With `COc1c(C)c(OC)c2c(c1OC(C)=O)c1ccccc1n2C(C)=O` [Compound 10, 9-acetyl-1,3-dimethoxy-2-methyl-9H-carbazol-4-yl acetate], the cytotoxicity / %-viability entry in the data set with HL60 cell line and with MOLM-13 cell line was “did not show any influence on the cytotoxicity” each time. For the same compound, the “cell survival dose/response curve” value in the data set with HL60 cell line and with MOLM-13 cell line was “rapid decrease in cell survival” each time.
With `COc1c(C)c(OC)c2[nH]c3ccccc3c2c1O` [Compound 11, 1,3-dimethoxy-2-methyl-9H-carbazol-4-ol], in the data set on HL60 cell line, the cytotoxicity / %-viability result is “major cytotoxicity” and the “cell survival dose/response curve” value is on record as “rapid decrease in cell survival”. For the same compound, in the data set on MOLM-13 cell line, the cytotoxicity / %-viability result is “major cytotoxicity” and the “cell survival dose/response curve” value is on record as “rapid decrease in cell survival”.
As to `COC1=C(C)C(=O)c2[nH]c3ccccc3c2C1=O` [Compound 12, 3-methoxy-2-methyl-1-carbazole-1,4 (9H)-dione], the “cell survival dose/response curve” value with HL60 cell line and with MOLM-13 cell line was “more limited dose/response curves” in each case.
In the case of `COC1=C(C)C(C)(O)c2[nH]c3ccccc3c2C1=O` (stereo not drawn) [Compound 13, 1-hydroxy-3-methoxy-1,2-dimethyl-1,9-dihydro-4H-carbazol-4-one, reference compound], in the data set on HL60 cell line, the cytotoxicity / %-viability entry was “not to exhibit cytotoxicity” and the “cell survival dose/response curve” value is recorded as “more limited dose/response curves”. Further, in the data set on MOLM-13 cell line, the cytotoxicity / %-viability result is reported as “not to exhibit cytotoxicity” and the “cell survival dose/response curve” value is listed as “more limited dose/response curves”.
